# According to patent US20260217708A1, “FUSED BENZAZEPINE DERIVATIVES FOR USE IN THE TREATMENT OF CANCER AND EPILEPSY” (UCB BIOPHARMA SRL, priority 2023, published 2026):
# How the values were obtained:
# [1] = target: T1, system Xc^− (Homo sapiens, UniProt Q9UPY5); assay: [^14C]L-Cystine uptake assay; assay type: cell-based; parameters: endogenous in cells; host or cells: H4 cells; conditions: H4 cells, sodium-free HEPES buffer, 0.5 μM L-[14C]Cystine and 4.5 μM L-Cystine, 1 hour at 37° C.; read-out: pIC50 [^14C] L-Cystine uptake assay (converted)
# T1 sequence (Q9UPY5 1-501): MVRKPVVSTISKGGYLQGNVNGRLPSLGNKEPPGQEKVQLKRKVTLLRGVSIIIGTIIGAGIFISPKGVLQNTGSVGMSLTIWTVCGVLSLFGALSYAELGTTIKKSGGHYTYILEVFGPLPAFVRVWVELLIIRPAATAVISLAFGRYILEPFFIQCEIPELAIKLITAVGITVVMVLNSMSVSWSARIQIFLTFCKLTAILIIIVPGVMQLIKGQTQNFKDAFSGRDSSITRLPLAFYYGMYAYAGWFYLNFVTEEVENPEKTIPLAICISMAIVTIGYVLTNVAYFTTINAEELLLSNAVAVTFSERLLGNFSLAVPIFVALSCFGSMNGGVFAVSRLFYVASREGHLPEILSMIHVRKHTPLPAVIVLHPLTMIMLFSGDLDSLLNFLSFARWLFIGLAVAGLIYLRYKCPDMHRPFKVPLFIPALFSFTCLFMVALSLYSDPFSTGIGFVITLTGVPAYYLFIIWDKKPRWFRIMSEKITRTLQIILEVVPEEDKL
# T1 sequence (P08195 1-529 partner): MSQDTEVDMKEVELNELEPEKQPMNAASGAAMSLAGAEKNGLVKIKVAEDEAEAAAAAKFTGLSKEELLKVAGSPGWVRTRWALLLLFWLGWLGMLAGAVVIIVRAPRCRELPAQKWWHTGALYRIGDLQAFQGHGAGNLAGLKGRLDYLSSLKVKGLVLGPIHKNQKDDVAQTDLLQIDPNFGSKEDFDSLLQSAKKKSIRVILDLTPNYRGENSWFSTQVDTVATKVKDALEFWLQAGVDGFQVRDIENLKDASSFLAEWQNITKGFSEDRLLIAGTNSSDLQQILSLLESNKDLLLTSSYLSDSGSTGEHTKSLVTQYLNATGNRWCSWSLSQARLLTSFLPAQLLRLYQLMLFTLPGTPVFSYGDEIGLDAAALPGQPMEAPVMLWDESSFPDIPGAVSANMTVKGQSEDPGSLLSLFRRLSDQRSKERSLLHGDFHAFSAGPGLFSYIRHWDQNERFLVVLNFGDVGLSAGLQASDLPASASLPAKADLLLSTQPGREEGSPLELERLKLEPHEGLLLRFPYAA
# Outline: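 Compound effect is given as pIC50, taken between controls of 1% DMSO and 50 μM Erastin. Human H4 cells were pretreated 15 min with compound in sodium-free buffer, then took up 0.5 μM [14C]cystine with 4.5 μM cold cystine for 1 hour at 37° C, read by scintillation proximity counting.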
# [2] = target: T1, system Xc^−; assay: Cystine-induced glutamate release assay; assay type: cell-based; parameters: endogenous in cells; host or cells: H4 cells; conditions: H4 cells, sodium-free HEPES buffer, 50 μM L-Cystine, 2 hours, Amplex Red glutamate readout; read-out: pIC50 Cystine-induced glutamate release assay (converted)
# Outline: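 IC50 (reported as pIC50) normalized to DMSO 1% and Erastin 50 μM controls, from Amplex Red fluorescence of glutamate exported into supernatant. H4 cells were washed into sodium-free buffer to exclude EAAT transport, then given compound with 50 μM L-cystine for 2 h in the incubator.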
Compound,IC50 [1],IC50 [2]
"Cc1cc2c(c(F)n1)-c1cccnc1[C@@H](C)C(=O)N2CC(=O)Nc1ccc(F)c(F)c1 [#140, N-(3,4-difluorophenyl)-2-[(10R)-3-fluoro-5,10-dimethyl-9-oxo-4,8,12-triazatricyclo[9.4.0.0^2,7]pentadeca-1(11),2(7),3,5,12,14-hexaen-8-yl]acetamide]",15.8 to 39.8 nM,15.8 to 39.8 nM
"Cc1cc2c(n(C)c1=O)-c1ccc(Cl)cc1C(C)C(=O)N2CC(=O)Nc1ccc(Cl)c(F)c1 (stereo not shown) [#181, N-(4-chloro-3-fluoro-phenyl)-2-(9-chloro-1,3,7-trimethyl-2,6-dioxo-7H-pyrido[3,2-d][3]benzazepin-5-yl)acetamide]",< 15.8 nM,15.8 to 39.8 nM
"Cc1cc2c(c(F)n1)-c1cnccc1C(C)C(=O)N2CC(=O)Nc1ccc(C(F)(F)F)cc1 (stereo not shown) [#180, 2-(3-fluoro-5,10-dimethyl-9-oxo-4,8,14-triazatricyclo[9.4.0.0^2,7]pentadeca-1(11),2(7),3,5,12,14-hexaen-8-yl)-N-[4-(trifluoromethyl)phenyl]acetamide]",15.8 to 39.8 nM,39.8 to 100 nM
"O=C(CN1C(=O)Cc2ncccc2-c2c1ccnc2Cl)Nc1ccc(C(F)(F)F)cc1 [#53, 2-(3-chloro-9-oxo-4,8,12-triazatricyclo [9.4.0.0^2,7]pentadeca-1(11),2(7),3,5,12,14-hexaen-8-yl)-N-[4-(trifluoromethyl)phen-yl]acetamide]",39.8 to 100 nM,100 to 501 nM
"Cc1cc2c(n(C)c1=O)-c1ccccc1C(C)C(=O)N2CC(=O)Nc1ccc(C(F)(F)F)cc1 (single isomer, unassigned) [#121, N-[4-(trifluoromethyl)phenyl]-2-[1,3,7-trimethyl-2,6-dioxo-7H-pyrido[3,2-d][3]benzazepin-5-yl]acetamide]",< 15.8 nM,< 15.8 nM
"Cc1cc2c(cc1C)N(CC(=O)Nc1ccc(C(F)(F)F)cc1)C(=O)Cc1cccnc1-2 [#22, 2-(9,10-dimethyl-6-oxo-5H-pyrido[3,2-d][1]benzazepin-7-yl)-N-[4-(trifluoromethyl)phenyl]acetamide]",39.8 to 100 nM,100 to 501 nM
"O=C(CN1C(=O)Cc2ncccc2-c2c(F)cncc21)Nc1ccc(C(F)(F)F)cc1 [#78, 2-(3-fluoro-9-oxo-5,8,12-triazatricyclo[9.4.0.0^2,7]pentadeca-1(11),2(7),3,5,12,14-hexaen-8-yl)-N-[4-(trifluoromethyl)-phenyl]acetamide]",100 to 501 nM,100 to 501 nM
"Cc1cc2c(c(F)n1)-c1cccnc1C(C)(F)C(=O)N2CC(=O)Nc1ccc(C(F)(F)F)cc1 (stereo not shown) [#89, 2-(3,10-difluoro-5,10-dimethyl-9-oxo-4,8,12-triazatricyclo[9.4.0.0^2,7]pentadeca-1(11),2(7),3,5,12,14-hexaen-8-yl)-N-[4-(trifluoromethyl)phenyl]acetamide]",100 to 501 nM,39.8 to 100 nM
"Cc1cc2c(c(=O)n1C)-c1ccc(F)cc1C(C)C(=O)N2CC(=O)Nc1ccc(Cl)c(F)c1 (single isomer, unassigned) [#174, N-(4-chloro-3-fluoro-phenyl)-2-(9-fluoro-2,3,7-trimethyl-1,6-dioxo-7H-pyrido[4,3-d][3]benzazepin-5-yl)acetamide]",< 15.8 nM,< 15.8 nM
"COC1C(=O)N(CC(=O)Nc2ccc(C(F)(F)F)cc2)c2cc(C)nc(Cl)c2-c2cccnc21 (stereo not shown) [#159, 2-(3-chloro-10-methoxy-5-methyl-9-oxo-4,8,12-triazatricyclo[9.4.0.0^2,7]pentadeca-1(11),2(7),3,5,12,14-hexaen-8-yl)-N-[4-(trifluoromethyl)phenyl]acetamide]",15.8 to 39.8 nM,39.8 to 100 nM
"Cc1cc2c(c(F)n1)-c1ncccc1CC(=O)N2CC(=O)Nc1ccc(C(F)(F)F)cc1 [#38, 2-(15-fluoro-13-methyl-9-oxo-3,10,14-triazatricyclo[9.4.0.0^2,7]pentadeca-1(11),2(7),3,5,12,14-hexaen-10-yl)-N-[4-(trifluoromethyl)phenyl]acetamide]",100 to 501 nM,100 to 501 nM

# Results, then the compound that gave them:
IC50 [1],IC50 [2],Compound
15.8 to 39.8 nM,15.8 to 39.8 nM,"Cc1cc2c(c(F)n1)-c1cc(F)cnc1C(C)C(=O)N2CC(=O)Nc1ccc(C(F)(F)F)nc1 (single isomer, unassigned) [#262, 2-[3,14-difluoro-5,10-dimethyl-9-oxo-4,8,12-triazatricyclo[9.4.0.0^2,7]pentadeca-1(11),2(7),3,5,12,14-hexaen-8-yl]-N-[6-(trifluoromethyl)-3-pyridyl]acetamide]"
< 15.8 nM,< 15.8 nM,"Cc1cc2c(c(F)n1)-c1cccnc1[C@@H](C)C(=O)N2CC(=O)Nc1ccc(C2(F)CC2)c(F)c1 [#248, 2-[(10R)-3-fluoro-5,10-dimethyl-9-oxo-4,8,12-triazatricyclo[9.4.0.0^2,7]pentadeca-1(11),2(7),3,5,12,14-hexaen-8-yl]-N-[3-fluoro-4-(1-fluorocyclopropyl)phenyl]acetamide]"
39.8 to 100 nM,15.8 to 39.8 nM,"COc1ccc2c(c1)N(CC(=O)Nc1ccc(Cl)c(F)c1)C(=O)C(C)c1ncccc1-2 (stereo not shown) [#306, N-(4-chloro-3-fluoro-phenyl)-2-(9-methoxy-5-methyl-6-oxo-5H-pyrido[2,3-d][1]benzazepin-7-yl)acetamide]"
39.8 to 100 nM,39.8 to 100 nM,"Cc1cc2c(c(F)n1)-c1cccnc1[C@@H](C)C(=O)N2CC(=O)Nc1ccc2c(c1)OC(F)(F)O2 [#238, N-(2,2-difluoro-1,3-benzodioxol-5-yl)-2-[(10R)-3-fluoro-5,10-dimethyl-9-oxo-4,8,12-triazatricyclo[9.4.0.0^2,7]pentadeca-1(15),2,4,6,11,13-hexaen-8-yl]acetamide]"
15.8 to 39.8 nM,15.8 to 39.8 nM,"O=C(CN1C(=O)C(CO)c2ncccc2-c2c(F)cc(Cl)cc21)Nc1ccc(Cl)c(F)c1 (single isomer, unassigned) [#382, 2-[9-chloro-11-fluoro-5-(hydroxymethyl)-6-oxo-5H-pyrido[2,3-d][1]benzazepin-7-yl]-N-(4-chloro-3-fluoro-phenyl)acetamide]"
< 15.8 nM,< 15.8 nM,"Cc1cc2c(c(Cl)n1)-c1cccnc1C(F)C(=O)N2CC(=O)Nc1ccc(C(F)(F)F)cc1 (single isomer, unassigned) [#188, enantiomer (10R) or (10S) of 2-[3-chloro-10-fluoro-5-methyl-9-oxo-4,8,12-triazatricyclo[9.4.0.0^2,7]pentadeca-1(11),2(7),3,5,12,14-hexaen-8-yl]-N-[4-(trifluoromethyl)phenyl]acetamide]"
15.8 to 39.8 nM,100 to 501 nM,"Cc1cc2c(c(F)n1)-c1cc(F)cnc1CC(=O)N2CC(=O)Nc1ccc(C(F)(F)F)cc1 [#391, 2-(3,14-difluoro-5-methyl-9-oxo-4,8,12-triazatricyclo[9.4.0.0^2,7]pentadeca-1(15),2(7),3,5,11,13-hexaen-8-yl)-N-[4-(trifluoromethyl)phenyl]acetamide]"
15.8 to 39.8 nM,15.8 to 39.8 nM,"Cc1cc2c(c(F)n1)-c1cccnc1[C@@H](C)C(=O)N2CC(=O)Nc1ccc(C(C)C)c(F)c1 [#244, 2-[(10R)-3-fluoro-5,10-dimethyl-9-oxo-4,8,12-triazatricyclo[9.4.0.0^2,7]pentadeca-1(11),2(7),3,5,12,14-hexaen-8-yl]-N-(3-fluoro-4-isopropyl-phenyl)acetamide]"
15.8 to 39.8 nM,15.8 to 39.8 nM,"COc1cc2c(c(OC)n1)-c1cccnc1C(C)C(=O)N2CC(=O)Nc1ccc(C(F)(F)F)nc1 (single isomer, unassigned) [#337, 2-[3,5-dimethoxy-10-methyl-9-oxo-4,8,12-triazatricyclo[9.4.0.0^2,7]pentadeca-1(15),2(7),3,5,11,13-hexaen-8-yl]-N-[6-(trifluoromethyl)-3-pyridyl]acetamide]"
